Assays:
Experiment in all cases: relative viability (nuclei count vs DMSO), 5 days (fraction); higher = more cells survive
[1] = system: RERF-LC-KJ
Method in brief: (§1)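 Medians of duplicate plates are given as relative viability. That measure is the nuclei count in treated wells divided by the count in vehicle wells. Counts were taken on 4× images of lung cancer cell lines in 1536-well plates, 5 days after pin-tool dosing the day after seeding with one drug alone or a fixed anchor-drug dose plus five library-drug doses (not always all listed) in √10 steps.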

[2] = system: NCI-H1755
Method in brief: as §1

[3] = system: HOP-62
Method in brief: as §1

[4] = system: A-427
Method in brief: as §1

[5] = system: NCI-H647
Method in brief: as §1

[6] = system: NCI-H2228
Method in brief: as §1

[7] = system: NCI-H358
Method in brief: as §1

[8] = system: LC-2-ad
Method in brief: as §1

[9] = system: NCI-H1734
Method in brief: as §1

[10] = system: NCI-H1915
Method in brief: as §1

[11] = system: LXF-289
Method in brief: as §1

[12] = system: PC-3 [JPC-3]
Method in brief: as §1

[13] = system: NCI-H1792
Method in brief: as §1

[14] = system: HCC-15
Method in brief: as §1

[15] = system: SW 1573
Method in brief: as §1

[16] = system: NCI-H2126
Method in brief: as §1

[17] = system: SK-LU-1
Method in brief: as §1

[18] = system: NCI-H2347
Method in brief: as §1

[19] = system: HCC-78
Method in brief: as §1

[20] = system: NCI-H1975
Method in brief: as §1

O=c1cc(N2CCOCC2)oc2c(-c3cccc4c3sc3ccccc34)cccc12 + CS(=O)(=O)CCNCc1ccc(-c2ccc3ncnc(Nc4ccc(OCc5cccc(F)c5)c(Cl)c4)c3c2)o1 [Lapatinib] (partner 2 µM)
relative viability ([1]; first compound 0.01 µM): 0.701 | relative viability ([1]; first compound 0.03162 µM): 0.882 | relative viability ([1]; first compound 0.1 µM): 0.906 | relative viability ([1]; first compound 0.3162 µM): 0.902 | relative viability ([1]; first compound 1 µM): 0.795 | relative viability ([2]; first compound 0.01 µM): 0.81 | relative viability ([2]; first compound 0.03162 µM): 1.02 | relative viability ([2]; first compound 0.1 µM): 1.02 | relative viability ([2]; first compound 0.3162 µM): 1.04 | relative viability ([2]; first compound 1 µM): 1.07 | relative viability ([3]; first compound 0.01 µM): 0.996 | relative viability ([3]; first compound 0.03162 µM): 0.856 | relative viability ([3]; first compound 0.1 µM): 0.821 | relative viability ([3]; first compound 0.3162 µM): 0.958 | relative viability ([3]; first compound 1 µM): 1.17 | relative viability ([4]; first compound 0.01 µM): 1.12 | relative viability ([4]; first compound 0.03162 µM): 1.01 | relative viability ([4]; first compound 0.1 µM): 0.982 | relative viability ([4]; first compound 0.3162 µM): 1.01 | relative viability ([4]; first compound 1 µM): 1.05 | relative viability ([5]; first compound 0.01 µM): 0.95 | relative viability ([5]; first compound 0.03162 µM): 1.22 | relative viability ([5]; first compound 0.1 µM): 1.04 | relative viability ([5]; first compound 0.3162 µM): 1.22 | relative viability ([5]; first compound 1 µM): 1 | relative viability ([6]; first compound 0.03162 µM): 0.978 | relative viability ([6]; first compound 0.1 µM): 1.03 | relative viability ([6]; first compound 0.3162 µM): 1.23 | relative viability ([6]; first compound 1 µM): 1.19 | relative viability ([7]; first compound 0.01 µM): 0.515 | relative viability ([7]; first compound 0.03162 µM): 0.478 | relative viability ([7]; first compound 0.1 µM): 0.482 | relative viability ([7]; first compound 0.3162 µM): 0.467 | relative viability ([7]; first compound 1 µM): 0.433 | relative viability ([8]; first compound 0.01 µM): 1.06 | relative viability ([8]; first compound 0.1 µM): 1.03 | relative viability ([8]; first compound 0.3162 µM): 0.898 | relative viability ([8]; first compound 1 µM): 1.02 | relative viability ([9]; first compound 0.01 µM): 1.12 | relative viability ([9]; first compound 0.03162 µM): 1.03 | relative viability ([9]; first compound 0.1 µM): 1.12 | relative viability ([9]; first compound 0.3162 µM): 1.04 | relative viability ([9]; first compound 1 µM): 0.927 | relative viability ([10]; first compound 0.01 µM): 1.05 | relative viability ([10]; first compound 0.03162 µM): 1.05 | relative viability ([10]; first compound 0.1 µM): 0.957 | relative viability ([10]; first compound 0.3162 µM): 0.977 | relative viability ([10]; first compound 1 µM): 1.05 | relative viability ([11]; first compound 0.01 µM): 0.872 | relative viability ([11]; first compound 0.03162 µM): 0.881 | relative viability ([11]; first compound 0.1 µM): 0.89 | relative viability ([11]; first compound 0.3162 µM): 0.897 | relative viability ([11]; first compound 1 µM): 0.946 | relative viability ([12]; first compound 0.01 µM): 0.492 | relative viability ([12]; first compound 0.03162 µM): 0.435 | relative viability ([12]; first compound 0.1 µM): 0.462 | relative viability ([12]; first compound 0.3162 µM): 0.421 | relative viability ([12]; first compound 1 µM): 0.423 | relative viability ([13]; first compound 0.01 µM): 0.884 | relative viability ([13]; first compound 0.03162 µM): 0.896 | relative viability ([13]; first compound 0.1 µM): 0.808 | relative viability ([13]; first compound 0.3162 µM): 0.874 | relative viability ([13]; first compound 1 µM): 0.828 | relative viability ([14]; first compound 0.01 µM): 0.823 | relative viability ([14]; first compound 0.03162 µM): 0.881 | relative viability ([14]; first compound 0.1 µM): 0.999 | relative viability ([14]; first compound 0.3162 µM): 0.871 | relative viability ([14]; first compound 1 µM): 0.86 | relative viability ([15]; first compound 0.01 µM): 0.21 | relative viability ([15]; first compound 0.03162 µM): 1.22 | relative viability ([15]; first compound 0.1 µM): 1.06 | relative viability ([15]; first compound 0.3162 µM): 1.07 | relative viability ([15]; first compound 1 µM): 1.14 | relative viability ([16]; first compound 0.01 µM): 0.826 | relative viability ([16]; first compound 0.03162 µM): 0.768 | relative viability ([16]; first compound 0.1 µM): 0.758 | relative viability ([16]; first compound 0.3162 µM): 0.748 | relative viability ([16]; first compound 1 µM): 0.718 | relative viability ([17]; first compound 0.01 µM): 0.808 | relative viability ([17]; first compound 0.03162 µM): 0.815 | relative viability ([17]; first compound 0.1 µM): 0.671 | relative viability ([17]; first compound 0.3162 µM): 0.82 | relative viability ([17]; first compound 1 µM): 0.816 | relative viability ([18]; first compound 0.01 µM): 0.953 | relative viability ([18]; first compound 0.03162 µM): 0.965 | relative viability ([18]; first compound 0.1 µM): 0.93 | relative viability ([18]; first compound 0.3162 µM): 0.942 | relative viability ([18]; first compound 1 µM): 0.973 | relative viability ([19]; first compound 0.01 µM): 1.03 | relative viability ([19]; first compound 0.03162 µM): 0.856 | relative viability ([19]; first compound 0.1 µM): 0.785 | relative viability ([19]; first compound 0.3162 µM): 0.785 | relative viability ([19]; first compound 1 µM): 0.652 | relative viability ([20]; first compound 0.01 µM): 0.856 | relative viability ([20]; first compound 0.03162 µM): 0.84 | relative viability ([20]; first compound 0.1 µM): 0.848 | relative viability ([20]; first compound 0.3162 µM): 0.849 | relative viability ([20]; first compound 1 µM): 0.826

— the supplement of paper PMC10307832
